Data reported in ChEMBL document CHEMBL5346901, “Discovery of potent Plasmodium falciparum protein kinase 6 (PfPK6) inhibitors with a type II inhibitor pharmacophore” (Eur J Med Chem, 2023).
In brackets after ≈: the same amount, converted by molar mass. Activity calls are given as the source filed them. No cut-off for these calls is given here.

Legend:
Plasmodium falciparum [1] = experiment: Inhibition of plasmodium falciparum NEK3 assessed as remaining activity at 1 uM incubated for 2 hrs by luciferin-based luminescence assay relative to control
[2] = Kinetic solubility of the compound at pH 7.4; format: physicochemical; details: buffer, read-out: Kinetic_solubility
Plasmodium falciparum [3] = experiment: Inhibition of plasmodium falciparum PK9 assessed as remaining activity at 1 uM incubated for 2 hrs by luciferin-based luminescence assay relative to control
HepG2 [4] = experiment: Cytotoxicity against human HepG2 cells assessed as reduction in cell viability by CellTiter-Glo assay; format: toxicity, cell-based
Plasmodium falciparum [5] = experiment: Inhibition of plasmodium falciparum PK5 assessed as remaining activity at 1 uM by Kinomescan method relative to control
[6] = molecular target: Calcium-dependent protein kinase 1 (Plasmodium falciparum) (UniProt P62344); experiment: Inhibition of plasmodium falciparum CDPK1 assessed as remaining activity at 1 uM by Kinomescan method relative to control; details: time 2.0 hrs
Calcium-dependent protein kinase 1 (Plasmodium falciparum), sequence (P62344 2-524 limits assumed): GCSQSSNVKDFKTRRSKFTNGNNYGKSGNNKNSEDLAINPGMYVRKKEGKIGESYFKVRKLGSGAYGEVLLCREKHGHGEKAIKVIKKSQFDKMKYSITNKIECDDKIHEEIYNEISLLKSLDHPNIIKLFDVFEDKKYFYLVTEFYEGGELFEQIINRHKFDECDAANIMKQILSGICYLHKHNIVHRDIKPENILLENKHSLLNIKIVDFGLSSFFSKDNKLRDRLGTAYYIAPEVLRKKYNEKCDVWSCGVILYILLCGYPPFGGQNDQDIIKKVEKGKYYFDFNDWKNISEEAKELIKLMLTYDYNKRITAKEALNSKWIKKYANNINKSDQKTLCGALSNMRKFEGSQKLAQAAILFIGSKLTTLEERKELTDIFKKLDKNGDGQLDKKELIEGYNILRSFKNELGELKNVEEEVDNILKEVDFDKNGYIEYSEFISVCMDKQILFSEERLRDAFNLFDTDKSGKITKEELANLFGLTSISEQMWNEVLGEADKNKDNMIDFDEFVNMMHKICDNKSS

Plasmodium falciparum [7] = experiment: Inhibition of plasmodium falciparum CDPK5 assessed as remaining activity at 1 uM incubated for 2 hrs by luciferin-based luminescence assay relative to control
Plasmodium berghei = experiment: Antimalarial activity against liver stage Plasmodium berghei ANKA sporozoites in human HepG2 cells assessed as reduction in parasite load measured after 44 hrs by […] reagent based […] analysis; format: functional, organism-based
Plasmodium falciparum [8] = experiment: Inhibition of plasmodium falciparum PK5 assessed as remaining activity at 1 uM incubated for 2 hrs by luciferin-based luminescence assay relative to control
[9] = molecular target: T1, Glycogen synthase kinase 3 (Plasmodium falciparum (isolate 3D7)) (UniProt O77344); experiment: Inhibition of plasmodium falciparum GSK3 assessed as remaining activity at 1 uM incubated for 2 hrs by luciferin-based luminescence assay relative to control
T1 sequence (whole entry): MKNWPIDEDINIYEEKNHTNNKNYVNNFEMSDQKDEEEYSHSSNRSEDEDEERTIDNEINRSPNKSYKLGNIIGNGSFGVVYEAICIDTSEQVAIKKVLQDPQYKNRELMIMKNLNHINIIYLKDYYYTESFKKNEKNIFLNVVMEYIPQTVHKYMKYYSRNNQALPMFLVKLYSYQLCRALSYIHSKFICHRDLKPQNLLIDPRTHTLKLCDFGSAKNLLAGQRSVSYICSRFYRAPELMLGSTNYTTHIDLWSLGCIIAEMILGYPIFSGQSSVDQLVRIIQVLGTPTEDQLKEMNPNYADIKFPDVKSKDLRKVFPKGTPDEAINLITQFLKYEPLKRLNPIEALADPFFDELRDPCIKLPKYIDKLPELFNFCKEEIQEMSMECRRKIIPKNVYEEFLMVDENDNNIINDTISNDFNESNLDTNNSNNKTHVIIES

Plasmodium falciparum [10] = experiment: Inhibition of plasmodium falciparum ARK3 assessed as remaining activity at 1 uM incubated for 2 hrs by luciferin-based luminescence assay relative to control
Plasmodium falciparum [11] = experiment: Inhibition of plasmodium falciparum NEK1 assessed as remaining activity at 1 uM incubated for 2 hrs by luciferin-based luminescence assay relative to control
HepG2 [12] = experiment: Cytotoxicity against human HepG2 cells infected with liver stage Plasmodium berghei ANKA sporozoites assessed as reduction in cell viability measured after 44 hrs by […] assay; format: toxicity, cell-based; details: hepg2, 44 h
Plasmodium falciparum [13] = experiment: Inhibition of plasmodium falciparum ARK1 assessed as remaining activity at 1 uM incubated for 2 hrs by luciferin-based luminescence assay relative to control
Plasmodium falciparum [14] = experiment: Antimalarial activity against blood stage Plasmodium falciparum 3D7 assessed as reduction in parasite growth incubated for 72 hrs by SYBR Green dye based fluorescence assay; format: functional, organism-based; details: 3D7, 72 h
Plasmodium falciparum [15] = experiment: Inhibition of plasmodium falciparum PKB assessed as remaining activity at 1 uM incubated for 2 hrs by luciferin-based luminescence assay relative to control
Plasmodium falciparum [16] = experiment: Inhibition of plasmodium falciparum CDPK2 assessed as remaining activity at 1 uM incubated for 2 hrs by luciferin-based luminescence assay relative to control
[17] = Microsomal stability in human liver microsomes assessed as parent compound remaining at 5 uM measured after 30 mins in presence of NADPH; format: ADME, Microsome; details: 0.5 h
[18] = Apparent permeability of compound by PAMPA assay; format: ADME
[19] = Microsomal stability in mouse liver microsomes assessed as parent compound remaining at 5 uM measured after 30 mins in presence of NADPH; format: ADME, Microsome; details: 0.5 h
[20] = molecular target: T2, Cdk-related protein kinase 6 (Plasmodium falciparum, UniProt O77239)
T2 sequence (O77239 whole entry): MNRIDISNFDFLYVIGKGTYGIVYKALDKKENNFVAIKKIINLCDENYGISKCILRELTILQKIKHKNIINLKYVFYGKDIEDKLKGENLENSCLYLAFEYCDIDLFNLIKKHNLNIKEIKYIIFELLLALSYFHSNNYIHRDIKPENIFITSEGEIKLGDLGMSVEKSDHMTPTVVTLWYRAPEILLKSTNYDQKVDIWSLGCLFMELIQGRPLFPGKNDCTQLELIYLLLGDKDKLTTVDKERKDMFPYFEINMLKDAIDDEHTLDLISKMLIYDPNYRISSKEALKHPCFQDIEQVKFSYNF
Description: Inhibition of N-terminal 6His-tagged plasmodium falciparum PK6 expressed in Escherichia coli BL21(DE3) incubated for 15 mins in presence of [gamma-32p]ATP and ATP by SDS-PAGE based autoradiography analysis

SMILES | Activity (Plasmodium falciparum [1]) [%] | solubility kinetic [2] [µM] | Activity (Plasmodium falciparum [3]) [%] | CC50 (HepG2 [4]) [µM] | Activity (Plasmodium falciparum [5]) [%] | Activity [6] [%] | Activity (Plasmodium falciparum [7]) [%] | Activity (Plasmodium falciparum [8]) [%] | Activity [9] [%] | Activity (Plasmodium falciparum [10]) [%] | Activity (Plasmodium falciparum [11]) [%] | CC50 (HepG2 [12]) [µM] | Activity (Plasmodium falciparum [13]) [%] | EC50 (Plasmodium falciparum [14]) [µM] | Activity (Plasmodium falciparum [15]) [%] | Activity (Plasmodium falciparum [16]) [%] | Stability [17] [%] | Papp [18] | Activity (Plasmodium berghei) | Stability [19] [%] | also measured
COc1cc2nccc(Oc3ccc(NC(=O)Nc4ccc(CC5CCNCC5)c(C(F)(F)F)c4)c(F)c3)c2cc1OC | 7 | 2.1 (≈ 1.26 µg/mL) | 89 | 1.29 | 80 | 1.1 | 27 | 94 | 34 | 87 | 100 | 1.29 | 100 | 0.039 | 21 | 64 | 98.1 | 0.734 10^-6 cm/s |  |  | EC50 (Plasmodium berghei; HepG2, 44 h): 0.22 µM
COc1cc2nccc(Oc3ccc(NC(=O)Nc4ccc(OC5CCN(C)CC5)c(C(F)(F)F)c4)c(F)c3)c2cc1OC | 6 | 1.5 (≈ 0.922 µg/mL) | 79 | 1 |  |  | 25 | 94 | 30 | 97 | 100 | 0.41 | 94 | 0.04 | 20 | 78 | 88.6 | < 0.513 10^-6 cm/s | inactive | 69.7 | 
COc1cc2nccc(Oc3ccc(NC(=O)Nc4ccc(C=C5CCNCC5)cc4)c(F)c3)c2cc1OC | 84 | 7.4 (≈ 3.91 µg/mL) |  | 2.57 |  |  | 98 | 100 | 100 |  | 100 | 6.62 | 98 | 0.14 | 38 | 96 | 88.6 | < 0.709 10^-6 cm/s | inactive | 86.7 | 
Cn1cnc2c(NCc3ccccc3)nc(NCCO)nc21 [OLOMOUCINE] |  |  |  |  |  |  |  |  |  |  |  |  |  |  |  |  |  |  |  |  | IC50 [20]: 180 µM
COc1cc2nccc(Oc3ccc(NC(=O)Nc4ccc(CC5CCNCC5)cc4)c(F)c3)c2cc1OC | 82 | 10.9 (≈ 5.78 µg/mL) | 99 | 4.39 | 84 | 51 | 91 | 97 | 97 |  | 100 | 3.29 | 97 | 0.16 | 30 | 88 |  | < 0.669 10^-6 cm/s | inactive | 85.8 | 
